# How the values were obtained:
# [1] = target: T1, succinate ubiquinone reductase (SQR) activity of Complex II (Homo sapiens, UniProt O14521+Q99643); assay: SQR activity assay in permeabilized cells; assay type: biochemical; conditions: TTFA-treated KMS11 cells, 24 h
# T1 construct: endogenous in cells; host or cells: KMS11 multiple myeloma cells, permeabilized
# Source text: Given reduced oxygen consumption rates (OCR) in sensitive cells, the activities of mitochondrial Complex I and II were examined. Mitochondrial Complex I and II receive electrons from the electron donors NADH or FADH2 respectively, that are transferred to the terminal electron acceptor (O2) via a series of redox reactions. Complex I or NADH:Coenzyme Q:oxidoreductase is the largest multimeric respiratory complex of ETC comprised of over 40 subunits with its catalytic subunit containing the NADH binding site. Electrons from NADH are transferred to FMN and then to FeS clusters and finally to ubiquinone where ubiquinone is reduced to ubiquinol. […] Complex I activity was measured using an assay that relies on immunocapture of Complex I from freshly prepared cellular protein extracts. The NADH dehydrogenase activity of immunocaptured Complex I was determined by the oxidation of NADH and simultaneous reduction of the provided dye resulting in increase in absorbance. SDH and SQR activities were measured in live permeabilized cells, containing intact mitochondria pretreated with inhibitors of Complex I (rotenone), Complex III (antimycin) and Complex IV (sodium azide), allowing for selective measurement of SQR or SDH activity. […]
# Succinate ubiquinone reductase (SQR) and succinate dehydrogenase (SDH) activity assays were performed by absorbance-based assays using different electron acceptors. […]
# [2] = tested on: venetoclax-resistant MM lines; assay: Venetoclax sensitization of resistant MM lines by ETC inhibitor cotreatment, viability by AnnexinV/DAPI staining; assay type: cell-based
# Description: Cell viability assessed by AnnexinV/DAPI staining.
# (§1) Given the unique role of Complex II in directly connecting the TCA cycle to the ETC, the impact of selectively inhibiting either the SDH or SQR activities of Complex II on venetoclax sensitivity was tested. The venetoclax sensitization effects of TTFA (SQR inhibitor) or 3NPA (SDH inhibitor) were tested on eight venetoclax-resistant MM lines (FIG. 3A-3H). 3NPA is a structural analog of succinate, which binds irreversibly with SDH inhibiting FAD reduction and fumarate production while TTFA is a direct Qp site inhibitor. […] The efficacy of the TTFA-venetoclax cotreatment strategy was also tested in a colony-forming unit assay. MM lines (L363 and KMS11) were cultured in an agar matrix with single agents or the combination.
# To further inquire whether Complex I inhibition could also sensitize MM cells to venetoclax, a Complex I inhibitor was tested ([…]).
# ATF4, NOXA = assay: Immunoblot of whole cell lysates for ATF4 and NOXA; assay type: cell-based; conditions: 100 μM TTFA, 24 h, MM cells
# [3] = tested on: MM lines (L363 and KMS11); assay: Colony-forming unit assay in agar matrix, TTFA-venetoclax cotreatment; assay type: cell-based; conditions: L363 and KMS11, venetoclax 0.1 μM
# Description: as §1
# MM cell lines = assay: Spare respiratory capacity (Seahorse XFe96 stress assay); assay type: cell-based; conditions: TTFA treated KMS11 cells
# Description: Spare capacity in venetoclax-sensitive and venetoclax -resistant cells was determined by subtracting basal OCR from maximal OCR.
# [4] = tested on: non-MM cells contained within the aspirate
# Description: Bone marrow aspirate samples from 50 MM patients were treated with three doses of venetoclax (0.01, 0.1 and 0.5 μM) or TTFA (100 μM), or the combination for 24 h and cell death was assessed by AnnexinV staining.
# The efficacy of IACS-010759 in sensitizing was tested in […] patient samples to venetoclax.
# BIM binding to BCL-2 = assay: Coimmunoprecipitation of BCL-2 and bound BIM; assay type: cell-based; conditions: TTFA-treated KMS11 cells
# Description: The regulation of ATF4, BIM and NOXA in MM cells that were not sensitized by TTFA treatment were investigated. Whole-cell lysates were evaluated for total protein expression. Coimmunoprecipitations was performed to examine binding of BIM with antiapoptotic BCL-2 in KMS11 and the TTFA insensitive-t(11;14) KMS21BM cells. Induction of BIM and NOXA were observed upon TTFA treatment (FIG. 5J) only in KMS11 not in the TTFA insensitive-t(11;14) KMS21BM cells.
# T1 sequence (Q99643 30-169): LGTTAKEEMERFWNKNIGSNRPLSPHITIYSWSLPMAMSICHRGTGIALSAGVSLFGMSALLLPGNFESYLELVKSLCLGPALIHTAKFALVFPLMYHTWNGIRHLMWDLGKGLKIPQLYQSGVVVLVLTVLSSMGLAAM
# T1 sequence (O14521 57-159): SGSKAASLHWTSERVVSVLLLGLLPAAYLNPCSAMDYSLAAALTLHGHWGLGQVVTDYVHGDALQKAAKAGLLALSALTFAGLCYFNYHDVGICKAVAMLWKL
# T1 sequence (P31040 43-664 partner): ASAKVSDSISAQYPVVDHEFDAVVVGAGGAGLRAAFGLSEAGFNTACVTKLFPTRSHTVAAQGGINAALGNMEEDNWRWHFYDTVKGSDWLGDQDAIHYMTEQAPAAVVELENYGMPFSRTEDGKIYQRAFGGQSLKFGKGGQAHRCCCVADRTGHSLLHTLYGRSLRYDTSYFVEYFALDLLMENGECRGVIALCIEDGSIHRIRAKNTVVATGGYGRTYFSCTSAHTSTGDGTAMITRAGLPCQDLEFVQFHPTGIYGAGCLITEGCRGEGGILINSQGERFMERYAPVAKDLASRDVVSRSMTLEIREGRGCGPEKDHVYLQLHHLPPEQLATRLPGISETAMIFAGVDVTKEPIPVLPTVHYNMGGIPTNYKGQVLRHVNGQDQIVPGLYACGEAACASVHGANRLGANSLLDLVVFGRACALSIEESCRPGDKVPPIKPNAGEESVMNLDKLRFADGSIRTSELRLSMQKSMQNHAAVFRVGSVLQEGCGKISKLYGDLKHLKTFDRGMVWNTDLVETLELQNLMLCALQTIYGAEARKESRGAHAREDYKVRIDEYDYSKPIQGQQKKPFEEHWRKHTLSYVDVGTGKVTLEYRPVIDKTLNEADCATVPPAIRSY
# T1 sequence (P21912 29-280 partner): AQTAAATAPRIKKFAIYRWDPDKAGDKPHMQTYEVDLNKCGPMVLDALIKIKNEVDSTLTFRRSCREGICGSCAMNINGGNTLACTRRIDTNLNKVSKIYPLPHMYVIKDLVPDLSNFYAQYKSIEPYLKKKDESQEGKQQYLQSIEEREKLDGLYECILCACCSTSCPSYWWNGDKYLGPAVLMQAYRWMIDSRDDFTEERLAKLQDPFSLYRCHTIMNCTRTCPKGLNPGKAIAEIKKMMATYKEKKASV
smiles,measurement,setting,value
"O=C(CC(=O)C(F)(F)F)c1cccs1 [TTFA, 4,4,4-trifluoro-1-(2-thienyl)-1,3-butanedione]",SQR activity,[1],Significant reduction in SQR activity
same,sensitization to venetoclax,"[2]; KMS21BM, TTFA at 100 μM",does not sensitize these cells to venetoclax
same,sensitization to venetoclax,"[2]; L363, TTFA 100 μM, 24 h",sensitizes myeloma cell line L363 to venetoclax more effectively than inhibition of SDHA with 3-NPA
same,sensitivity to venetoclax on cotreatment,"[2]; eight venetoclax-resistant MM lines, 24 h",increased sensitivity to venetoclax in six of the eight lines tested
same,"protein expression of ATF4, NOXA","ATF4, NOXA","Increased expression of ATF4, NOXA"
same,"sensitization to venetoclax, cellular viability in colony-forming unit assay",[3],sensitized MM lines to a lower dose of venetoclax
same,spare respiratory capacity (SRC),MM cell lines,concordantly reduced
same,viability of non-MM cells,[4],no to minimal impact on viability
same,BIM binding to BCL-2,BIM binding to BCL-2,elevated BIM binding to BCL-2

# Reference: patent publication US20210386752A1, “Uses of Electron Transport Chain Complex I or Complex II Inhibitors in Treating Cancer, Combination Therapies, and Diagnostic Methods Related Thereto” (Emory University, priority 2020, published 2021)
